One molecule from patent US11759454B2, “Diazole lactams” (CHEMOCENTRYX, INC., priority 2012, dated 2023) can be followed below.

Assay [1] has as its system inflammatory cells recruited to the inflamed synovial fluid of the knee joints. Put plainly: Rabbit model of destructive joint inflammation (rabbit LPS study). The format is in vivo. As to conditions: female New Zealand rabbits, intra-articular LPS 10 ng, oral dosing in 1% methocel 2 h before and 4 h after LPS, lavage at 16 h. As to the method: a) Rabbit Model of Destructive Joint Inflammation
A rabbit LPS study was conducted essentially as described in Podolin, et al. J. Immunol. 169(11):6435-6444 (2002). Female New Zealand rabbits (approximately 2 kilograms) were treated intra-articularly in both knees with LPS (10 ng). The compound of interest, for example 1.016, (formulated in 1% methocel) or vehicle (1% methocel) was dosed orally at a 5 ml/kg dose volume at two times (2 hours before the intra-articular LP S injection and 4 hours after the intra-articular LP S injection). Sixteen hours after the LP S injection, knees were lavaged and cells counts were performed. Beneficial effects of treatment were determined by reduction in the number of inflammatory cells recruited to the inflamed synovial fluid of the knee joints.

A further assay has as its target T1, CCR1 (Homo sapiens, UniProt P32246).
T1 construct: host or cells: THP-1 cells (or freshly isolated monocytes)
T1 sequence (P32246 1-355): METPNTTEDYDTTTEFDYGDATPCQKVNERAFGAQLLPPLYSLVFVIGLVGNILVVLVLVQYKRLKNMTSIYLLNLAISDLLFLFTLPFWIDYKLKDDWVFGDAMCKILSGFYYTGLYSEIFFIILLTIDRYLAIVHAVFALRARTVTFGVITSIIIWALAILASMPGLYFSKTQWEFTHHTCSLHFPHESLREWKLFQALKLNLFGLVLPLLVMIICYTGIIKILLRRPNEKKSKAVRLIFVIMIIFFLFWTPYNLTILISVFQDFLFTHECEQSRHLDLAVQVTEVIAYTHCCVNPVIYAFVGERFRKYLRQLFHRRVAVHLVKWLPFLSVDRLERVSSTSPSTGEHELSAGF
Put plainly: Chemotaxis assay (inhibition of CCR1 mediated migration). The format is cell-based. As to conditions: chemotaxis of THP-1 or monocyte cells toward CCR1 chemokine ligand (MIP-1α, CCL15/leukotactin); read-out: Avg Mig IC50. As to the method:
THP-1 cells were obtained from ATCC (TIB-202) and cultured as a suspension in RPMI-1640 medium supplemented with 2 mM L-glutamine, 1.5 g/L sodium bicarbonate, 4.5 g/L glucose, 10 mM HEPES, 1 mM sodium pyruvate, 0.05% 2-mercaptoethanol and 10% FBS. Cells were grown under 5% CO2/95% air, 100% humidity at 37° C. and subcultured twice weekly at 1:5 (cells were cultured at a density range of 2×10^5 to 2×10^6 cells/mL) and harvested at 1×10^6 cells/mL. THP-1 cells express CCR1 and can be used in CCR1 binding and functional assays.
Chemotaxis assays were performed using 5 μm pore polycarbonate, polyvinylpyrrolidone-coated filters in 96-well chemotaxis chambers (Neuroprobe; Gaithersburg, Md.) using chemotaxis buffer (Hank's balanced salt solution (HBSS) and 1% FBS). CCR1 chemokine ligands (i.e., MIP-1α, CCL15/Leukotactin; R&D Systems; Minneapolis, Minn.) are use to evaluate compound mediated inhibition of CCR1 mediated migration. Other chemokines (i.e., SDF-1α; R&D Systems; Minneapolis, Minn.) are used as specificity controls. The lower chamber was loaded with 29 μl of chemokine (i.e., 0.1 nM CCL15/Leukotactin) and varying amounts of compound; the top chamber contained 100,000 THP-1 or monocyte cells in 20 μl. The chambers were incubated 1-2 hours at 37° C., and the number of cells in the lower chamber quantified either by direct cell counts in five high powered fields per well or by the CyQuant assay (Molecular Probes), a fluorescent dye method that measures nucleic acid content and microscopic observation.
One of the primary functions of chemokines is their ability to mediate the migration of chemokine receptor-expressing cells, such as white blood cells. To confirm that a compound of interest inhibited not only CCR1 specific binding and signaling (at least as determined by calcium mobilization assays), but also CCR1 mediated migration, a chemotaxis assay was employed. THP-1 myelomonocytic leukemia cells, which resemble monocytes, as wells as freshly isolated monocytes, were used as targets for chemoattraction by CCR1 chemokine ligands (i.e., MIP-1α, CCL15/leukotactin). Cells were placed in the top compartment of a microwell migration chamber, while MIP-1α (or other potent CCR1 chemokine ligand) and increasing concentrations of a compound of interest was loaded in the lower chamber. […] To ascertain a compound of interest's affinity for CCR1 as well as to confirm its ability to inhibit CCR1 mediated cell migration, inhibitory activity was titered over a 1×10^−10 to 1×10^−4 M range of compound concentrations in this chemotaxis assay. In this assay, the amount of compound was varied; while cell number and chemokine agonist concentrations were held constant. After the chemotaxis chambers were incubated 1-2 hours at 37° C., the responding cells in the lower chamber were quantified by labeling with the CyQuant assay (Molecular Probes), a fluorescent dye method that measures nucleic acid content, and by measuring with a Spectrafluor Plus (Tecan). The computer program Prism from GraphPad, Inc. (San Diego, Calif.) was used to calculate IC50 values. IC50 values are those compound concentrations required to inhibit the number of cells responding to a CCR1 agonist by 50%.

Molecules are shown by their SMILES.

Regarding `CC(C)c1c(N2CCC(n3cnc(C(F)(F)F)c3)C2=O)cnn1-c1ccc(F)cc1` (centres unmarked) [Compound 1.016], in assay [1], the “reduction in the number of inflammatory cells recruited to the inflamed synovial fluid of the knee joints” value is “significant reduction in recruited inflammatory cells”. The IC50 at CCR1 is 0.1 to 20 µM.
